Columns and labels:
recombinant NL4-3 virus = assay: HIV cell culture assay (Renilla luciferase reporter virus in MT-2 cells); assay type: cell-based; details: Human immunodeficiency virus 1, NL43, MT2
Protocol: HIV cell culture assay—MT-2 cells, 293T cells and the proviral DNA clone of NL4-3 virus were obtained from the NIH AIDS Research and Reference Reagent Program. MT-2 cells were propagated in RPMI 1640 media supplemented with 10% heat inactivated fetal bovine serum (FBS), […]. The 293T cells were propagated in DMEM media supplemented with 10% heat inactivated FBS, […]. A recombinant NL4-3 proviral clone, in which a section of the nef gene was replaced with the Renilla luciferase gene, was used to make the reference virus used in these studies. The recombinant virus was prepared through transfection of the recombinant NL4-3 proviral clone into 293T cells using Transit-293 Transfection Reagent from Mirus Bio LLC (Madison, Wis.). Supernatent was harvested after 2-3 days and the amount of virus present was titered in MT-2 cells using luciferase enzyme activity as a marker by measuring luciferase enzyme activity. Luciferase was quantitated using the EnduRen Live Cell Substrate from Promega (Madison, Wis.). Antiviral activities of compounds toward the recombinant virus were quantified by measuring luciferase activity in MT-2 cells infected for 4-5 days with the recombinant virus in the presence of serial dilutions of the compound. […]

[1] = Compound cytotoxicity, XTT-based colorimetric assay; assay type: cell-based; details: human; uninfected MT2 cells, day 4, XTT
Protocol: Compound cytotoxicity and the corresponding CC50 values were determined using the same protocol as described in the antiviral assay except that uninfected cells were used. Cytotoxicity was assessed on day 4 in uninfected MT2 cells by using an XTT (2,3-bis[2-Methoxy-4-nitro-5-sulfophenyl]-2H-tetrazolium-5-carboxyanilide inner salt)-based colorimetric assay (Sigma-Aldrich, St Louis, Mo.).

CC(C)(C#Cc1ccc2c(=O)n(-c3ccc(Cl)c4c(NS(=O)(=O)C5CC5)nn(CC(F)F)c34)c([C@H](Cc3cc(F)cc(F)c3)NC(=O)Cn3nc(C(F)F)c4c3C(F)(F)C3CC43)nc2c1)S(C)(=O)=O (stereo in doubt) [Example 2, N—((S)-1-(3-(4-chloro-3-(cyclopropanesulfonamido)-1-(2,2-difluoroethyl)-1H-indazol-7-yl)-7-(3-methyl-3-(methylsulfonyl)but-1-yn-1-yl)-4-oxo-3,4-dihydroquinazolin-2-yl)-2-(3,5-difluorophenyl)ethyl)-2-((3bS,4aR)-3-(difluoromethyl)-5,5-difluoro-3b,4,4a,5-tetrahydro-1H-cyclopropa[3,4]cyclopenta[1,2-c]pyrazol-1-yl)acetamide]
EC50 (recombinant NL4-3 virus): 0.047 nM | CC50 at 4 day [1]: > 500 nM

Cn1nc(NS(C)(=O)=O)c2c(Cl)ccc(-n3c([C@H](Cc4cc(F)cc(F)c4)NC(=O)Cn4nc(C(F)F)c5c4C(F)(F)C4CC54)nc4cc(C#CC(C)(C)S(C)(=O)=O)ccc4c3=O)c21 (stereo in doubt) [Example 1, N—((S)-1-(3-(4-chloro-1-methyl-3-(methylsulfonamido)-1H-indazol-7-yl)-7-(3-methyl-3-(methylsulfonyl)but-1-yn-1-yl)-4-oxo-3,4-dihydroquinazolin-2-yl)-2-(3,5-difluorophenyl)ethyl)-2-((3bS,4aR)-3-(difluoromethyl)-5,5-difluoro-3b,4,4a,5-tetrahydro-1H-cyclopropa[3,4]cyclopenta[1,2-c]pyrazol-1-yl)acetamide]
EC50 (recombinant NL4-3 virus): 0.035 nM | CC50 at 4 day [1]: > 500 nM
